Tests used:
Format in all cases: biochemical
JNK1 = JNK1 (Homo sapiens, UniProt P45983); assay: In vitro JNK1 inhibition (Table 1)
Method: (§1) In vitro assays for the determination of JNK activities are known in the art and exemplary assay formats are described herein.
(§2) IC50 values in Table 1 were determined using the procedures as described in U.S. Pat. No. 8,450,353.

JNK3 = JNK3 (Homo sapiens, UniProt P53779); assay: In vitro JNK3 inhibition (Table 1)
Method: as §1, §2

JNK2 = JNK2 (Homo sapiens, UniProt P45984); assay: In vitro JNK2 inhibition (Table 1)
JNK2, sequence (P45984 whole entry, species assumed): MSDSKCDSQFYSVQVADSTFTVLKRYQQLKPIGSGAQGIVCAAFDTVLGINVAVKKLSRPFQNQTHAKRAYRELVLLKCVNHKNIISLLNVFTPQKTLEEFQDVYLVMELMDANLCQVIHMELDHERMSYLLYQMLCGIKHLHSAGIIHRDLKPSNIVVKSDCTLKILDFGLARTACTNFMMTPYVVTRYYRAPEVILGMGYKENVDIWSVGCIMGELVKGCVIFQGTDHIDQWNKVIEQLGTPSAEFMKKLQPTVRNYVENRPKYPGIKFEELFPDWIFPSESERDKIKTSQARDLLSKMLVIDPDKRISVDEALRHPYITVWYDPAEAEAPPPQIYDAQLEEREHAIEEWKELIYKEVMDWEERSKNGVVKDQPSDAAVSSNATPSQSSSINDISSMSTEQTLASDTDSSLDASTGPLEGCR
Method: as §1, §2

JNK3, sequence (P53779 whole entry, species assumed): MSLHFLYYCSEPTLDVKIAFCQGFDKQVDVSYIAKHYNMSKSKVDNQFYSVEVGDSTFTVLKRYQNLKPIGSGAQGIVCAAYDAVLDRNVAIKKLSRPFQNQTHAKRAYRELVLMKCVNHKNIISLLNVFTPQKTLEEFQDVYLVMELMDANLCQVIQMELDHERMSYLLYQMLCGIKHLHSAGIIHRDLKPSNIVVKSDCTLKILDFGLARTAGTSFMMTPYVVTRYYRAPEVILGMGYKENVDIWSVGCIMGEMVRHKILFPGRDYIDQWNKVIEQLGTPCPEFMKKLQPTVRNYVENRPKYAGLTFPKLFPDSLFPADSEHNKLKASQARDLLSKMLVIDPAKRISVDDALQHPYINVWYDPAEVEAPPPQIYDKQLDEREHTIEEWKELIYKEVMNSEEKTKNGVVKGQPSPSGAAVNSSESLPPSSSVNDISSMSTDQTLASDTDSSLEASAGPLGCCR
JNK1, sequence (P45983 whole entry, species assumed): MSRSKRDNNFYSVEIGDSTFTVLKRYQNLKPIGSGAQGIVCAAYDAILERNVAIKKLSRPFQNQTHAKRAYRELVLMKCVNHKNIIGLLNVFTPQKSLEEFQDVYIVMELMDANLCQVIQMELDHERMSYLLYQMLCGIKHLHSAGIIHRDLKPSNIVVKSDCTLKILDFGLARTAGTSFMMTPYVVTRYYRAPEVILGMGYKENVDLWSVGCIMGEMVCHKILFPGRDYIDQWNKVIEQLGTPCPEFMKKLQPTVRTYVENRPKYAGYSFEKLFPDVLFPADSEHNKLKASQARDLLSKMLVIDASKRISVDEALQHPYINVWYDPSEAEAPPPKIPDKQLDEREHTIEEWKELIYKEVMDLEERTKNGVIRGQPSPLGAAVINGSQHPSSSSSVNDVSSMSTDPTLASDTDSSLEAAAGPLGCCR

IC50 (JNK1) [nM]	IC50 (JNK3) [nM]	IC50 (JNK2) [nM]	SMILES
< 100	< 100	< 100	N#Cc1csc(NC(=O)CN2C(=O)CCc3ncccc32)c1-c1nccs1 [N-(4-cyano-3-(thiazol-2-yl)thiophen-2-yl)-2-(2-oxo-3,4-dihydro-1,5-naphthyridin-1(2H)-yl)acetamide]
< 100	< 100	< 10000	Cc1csc(NC(=O)CN2C(=O)CCc3ccccc32)c1-c1ncn[nH]1 [N-(4-methyl-3-(1H-1,2,4-triazol-5-yl)thiophen-2-yl)-2-(2-oxo-3,4-dihydroquinolin-1(2H)-yl)acetamide]
< 100	< 100	< 100	Cc1n[nH]c(-c2c(C)csc2NC(=O)CN2C(=O)CCc3ccccc32)n1 [N-(4-methyl-3-(3-methyl-1H-1,2,4-triazol-5-yl)thiophen-2-yl)-2-(2-oxo-3,4-dihydroquinolin-1(2H)-yl)acetamide]

The remaining lines, values behind:

SMILES	IC50 (JNK1) [nM]	IC50 (JNK3) [nM]	IC50 (JNK2) [nM]
N#Cc1csc(NC(=O)Cn2c(=O)ccc3cc(C(F)(F)F)ccc32)c1-c1nccs1 [N-(4-cyano-3-(thiazol-2-yl)thiophen-2-yl)-2-(2-oxo-6-(trifluoromethyl)quinolin-1(2H)-yl)acetamide]	< 100	< 100	< 100
N#Cc1csc(NC(=O)Cn2c(=O)ccc3cc(C(F)(F)F)ccc32)c1-c1cscn1 [N-(4-cyano-3-(thiazol-4-yl)thiophen-2-yl)-2-(2-oxo-6-(trifluoromethyl)quinolin-1(2H)-yl)acetamide]	< 100	< 100	< 100

— patent US20190231751A1, “TREATMENT OF FIBROTIC DISORDERS WITH JUN N-TERMINAL KINASE INHIBITORS” (Imago Pharmaceuticals, Inc., priority 2016, published 2019)
